pIC50: −log10 of the molar value. Where a name gives a salt, the structure may show the parent alone.

The term pIC50 denotes the negative decadic logarithm of the IC50, by convention in mol/L. A low value points to a high IC50. In general, inhibition refers to the relative decrease from the control value, in per cent.

The target of one assay is ERK-2 kinase (Homo sapiens, UniProt P28482). Kind of assay: Assay against ERK-2 (33-P ATP, myelin basic protein substrate). It counts as biochemical. As to conditions: non-labeled ATP 1 μM, 22° C. The procedure:
Compounds of the invention were assayed for ability to inhibit ERK-2 kinase using a 33-P radio-ligand binding assay. 33-P labeled ATP was used as the radio-ligand and myelin basic protein was used as the substrate. A non-labeled ATP concentration of 1 μM was used. Plates were incubated at 22° C. before isolation and radioactivity determination by scintillation counting. The IC50 values (concentration causing a half-maximal inhibition) and Hill coefficients (nH) were determined by non-linear regression analysis of competition curves generated with 10 data points using Hill equation curve fitting.

For a further assay, the system named is human keratinocytes. Kind of assay: Keratinocyte proliferation assay. It counts as cell-based. On the procedure: Compounds of the Invention were assayed for their ability to inhibit the proliferation of human keratinocytes. Namely, keratinocytes were plated on day zero and allowed to attach. One day later, the cells were washed and then treated with control culture medium with or without the test compound. Cells were harvested and counted on day-2. Value for the time-zero control was determined (mean and standard deviation based on triplicate experiments with n=9 data points). The untreated control value at day 2 was then determined (mean and standard deviation based on triplicate experiments with n=12 data points). All of the values from treated samples were compared to the control values and are expressed as the change from control±the standard deviation based on the three experiments.

In assay [1] the test system is MMP-1 expression in skin fibroblasts. Kind of assay: MMP-1 expression in skin fibroblasts (Western blot). It counts as cell-based, human. The procedure:
(§1) Fibroblasts were plated on day zero and allowed to attach. One day later, the cells were washed and then treated with control culture medium with or without test compound. Cells were harvested and counted on day-3. The culture medium was then assayed via Western blot analysis to determine expression levels of MMP-1.
In general terms: A western blot detects proteins with antibodies after separation by electrophoresis.

For the next assay, the system named is human skin fibroblasts. Kind of assay: Skin fibroblast proliferation. It counts as cell-based. Conditions: at higher concentrations. The procedure: as §1

Sequence of ERK-2 kinase (P28482 whole entry): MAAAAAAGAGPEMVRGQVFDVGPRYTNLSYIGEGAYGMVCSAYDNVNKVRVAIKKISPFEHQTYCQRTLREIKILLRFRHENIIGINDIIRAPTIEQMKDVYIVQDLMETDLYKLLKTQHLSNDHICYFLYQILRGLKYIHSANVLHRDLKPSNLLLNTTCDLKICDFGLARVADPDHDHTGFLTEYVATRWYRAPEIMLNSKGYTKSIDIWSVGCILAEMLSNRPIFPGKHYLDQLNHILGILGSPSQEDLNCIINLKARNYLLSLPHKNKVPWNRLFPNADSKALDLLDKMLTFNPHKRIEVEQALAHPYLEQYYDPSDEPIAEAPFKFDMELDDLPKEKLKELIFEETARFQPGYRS

In turn, `Cl.Clc1cccc(-c2cn[nH]c2-c2c[nH]c3ncccc23)c1` [Example 1, 3-[4-(3-Chlorophenyl)-2H-pyrazol-3-yl]-1H-pyrrolo[2,3-b]pyridine Hydrochloride] showed a pIC50 on ERK-2 kinase of 5.84. Moreover, in the assay with human keratinocytes (calculated from Table 2 data, read-out: GI50 (inhibition of keratinocyte proliferation)), the GI50 is 4.36 µM. For the same molecule, the inhibition at 0.03 µM in the assay with human keratinocytes (test concentration 0.03 μM, cells counted on day-2, change from control) is -20%. The inhibition at 0.15 µM in the assay on human keratinocytes (test concentration 0.15 μM, cells counted on day-2, change from control) was -13%. Moreover, the inhibition at 0.3 µM in the assay on human keratinocytes (test concentration 0.30 μM, cells counted on day-2, change from control) is -6%. Besides, in the assay with human keratinocytes (test concentration 1.51 μM, cells counted on day-2, change from control), the inhibition at 1.51 µM came out at 8%. In addition, the inhibition at 3.02 µM with human keratinocytes (test concentration 3.02 μM, cells counted on day-2, change from control) turned out to be 21%. In addition, the inhibition at 6.04 µM with human keratinocytes (test concentration 6.04 μM, cells counted on day-2, change from control) is 72%. Further, the inhibition at 15.1 µM with human keratinocytes (test concentration 15.1 μM, cells counted on day-2, change from control) was 118%. The MMP-1 expression result in assay [1] (5 μg/mL, culture medium, day-3, Western blot) is recorded as “significantly inhibited”. Moreover, in assay [1] (at higher concentrations, Western blot), the “collagenase (MMP-1) production” value is recorded as “significant reduction”. Also, the “effect on fibroblast proliferation” value with human skin fibroblasts is “minimal effect”.

For the molecule `Clc1cccc(-c2cn[nH]c2-c2c[nH]c3nc(NCc4ccccc4)ccc23)c1` [Example 3, Benzyl-{3-[4-(3-chlorophenyl)-2H-pyrazol-3-yl]-1H-pyrrolo[2,3-b]pyridin-6-yl}amine Dihydrochloride], the pIC50 on ERK-2 kinase was 5.65.

`c1ccc(CNc2ccc3c(-c4[nH]ncc4-c4ccccc4)c[nH]c3n2)cc1` [Example 4, Benzyl-[3-(4-phenyl-2H-pyrazol-3-yl)-1H-pyrrolo[2,3-b]pyridin-6-yl]amine] showed a pIC50 against ERK-2 kinase of 4.95.

`c1ccc(-c2cn[nH]c2-c2c[nH]c3ncccc23)cc1` [Example 2, 3-[4-Phenyl-2H-pyrazol-3-yl]-1H-pyrrolo[2,3-b]pyridine Hydrochloride] gave a pIC50 against ERK-2 kinase of 5.01.

The values above are taken from US8697697B2, “Pyrazole derivatives as ERK inhibitors” (Kinentia Biosciences LLC, priority 2011, dated 2014).
